In US11155560B2, “Substituted pyrazolo[1,5-a]pyrimidines for modulating CDK9 activity” (Kronos Bio, Inc., priority 2018, dated 2021):

Target: CDK9/cyclin T1 (Homo sapiens, UniProt P50750)
Experiment: CDK9/cyclin T1 inhibition, radiometric assay
Format: biochemical
Details: radiometric assay, reaction time 60 minutes, 10 μM ATP, 10-dose IC50; compounds 1-34 and control Staurosporine; read-out: CDK9/cyclin T1 Potency Grade
Procedure: Exemplary compounds of the invention (1-34) were tested for inhibition of CDK9/cyclin T1. […] Reactions were carried out at 10 μM ATP. Data was normalized to positive and negative controls and curve fits were executed with GraphPad software and were performed where the enzyme activities at the highest concentration of compounds were less than 65%.

Sequence of CDK9/cyclin T1 (P50750 whole entry): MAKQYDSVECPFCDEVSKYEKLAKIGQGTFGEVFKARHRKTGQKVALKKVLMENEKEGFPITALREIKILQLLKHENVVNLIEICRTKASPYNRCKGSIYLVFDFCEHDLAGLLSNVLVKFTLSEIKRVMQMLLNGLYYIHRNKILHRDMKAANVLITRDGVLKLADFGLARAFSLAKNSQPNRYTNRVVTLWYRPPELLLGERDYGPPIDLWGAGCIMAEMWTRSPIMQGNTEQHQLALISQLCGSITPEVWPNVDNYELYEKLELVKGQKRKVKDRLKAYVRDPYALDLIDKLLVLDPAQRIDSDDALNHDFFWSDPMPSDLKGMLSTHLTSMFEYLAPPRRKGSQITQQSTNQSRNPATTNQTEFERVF
Sequence of CDK9/cyclin T1 (O60563 whole entry partner): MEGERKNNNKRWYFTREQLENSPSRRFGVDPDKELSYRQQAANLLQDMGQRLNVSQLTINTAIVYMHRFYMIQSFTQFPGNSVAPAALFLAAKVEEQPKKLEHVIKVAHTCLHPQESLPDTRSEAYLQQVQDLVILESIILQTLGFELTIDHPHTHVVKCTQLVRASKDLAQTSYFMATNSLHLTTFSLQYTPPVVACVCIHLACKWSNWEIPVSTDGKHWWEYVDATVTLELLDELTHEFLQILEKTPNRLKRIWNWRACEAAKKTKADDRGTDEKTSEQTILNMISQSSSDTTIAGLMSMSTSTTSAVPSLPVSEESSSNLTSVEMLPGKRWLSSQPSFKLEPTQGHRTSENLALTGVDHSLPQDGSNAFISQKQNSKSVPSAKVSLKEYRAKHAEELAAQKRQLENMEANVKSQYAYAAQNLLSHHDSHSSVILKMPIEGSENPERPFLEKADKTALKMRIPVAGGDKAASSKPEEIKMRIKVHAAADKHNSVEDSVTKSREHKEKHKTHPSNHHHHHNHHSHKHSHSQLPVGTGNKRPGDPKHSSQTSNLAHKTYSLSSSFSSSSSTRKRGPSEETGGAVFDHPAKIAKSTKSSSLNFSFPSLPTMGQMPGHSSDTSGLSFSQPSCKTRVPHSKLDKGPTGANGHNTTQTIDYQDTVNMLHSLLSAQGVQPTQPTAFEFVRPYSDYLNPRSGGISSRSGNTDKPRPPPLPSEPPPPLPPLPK

Row | SMILES | IC50 [nM]
1 | N[C@@H]1CC[C@@H](Nc2cc(C3CC3)nc3ccnn23)C1 [Compound 32, [(1R,3R)-3-[(5-cycloproylpyrazolo[1,5-a]pyrimidin-7-yl)amino]cyclopentyl]ammonium; 2,2,2-trifluoroacetate] | 1 to 500

Same assay, conditions: read-out: CDK9/cyclin T1 Potency Grade

Row | SMILES | IC50 [nM]
2 | Cc1cc(N[C@@H]2CC[C@H](N)C2)n2nccc2n1 [Compound 10, [(1S,3R)-3-[(5-methylpyrazolo[1,5-a]pyrimidin-4-ium-7-yl)amino]cyclopentyl]ammonium dichloride] | > 1000
3 | Cc1cc(N[C@H]2C[C@H](N)C2)n2nccc2n1 [Compound 11, [3-[(5-methylpyrazolo[1,5-a]pyrimidin-4-ium-7-yl)amino]cyclobutyl]ammonium dichloride] | 501 to 1000
4 | CC(C)c1cc(NC2CCCC2)n2nccc2n1 [Compound 2, N-cyclopentyl-5-isopropyl-pyrazolo[1,5-a]pyrimidin-7-amine] | 1 to 500

Results, then the molecule that gave them:

Row | IC50 [nM] | SMILES
5 | 1 to 500 | CCc1cc(N[C@H]2CC[C@H](N)C2)n2nccc2n1 [Compound 28, (1S,3S)-N3-(5-ethylpyrazolo[1,5-a]pyrimidin-7-yl)cyclopentane-1,3-diamine]
6 | 1 to 500 | CC(C)c1cc(NC2CCCCC2)n2nccc2n1 [Compound 29, N-cyclohexyl-5-isopropyl-pyrazolo[1,5-a]pyrimidin-7-amine]
7 | > 1000 | CC(=O)Nc1cc(N[C@@H]2CC[C@@H](N)C2)n2nccc2n1 [Compound 34, [(1R,3R)-3-[(5-acetamidopyrazolo[1,5-a]pyrimidin-7-yl)amino]cyclopentyl]ammonium; 2,2,2-trifluoroacetate]
8 | 1 to 500 | CC(=O)Nc1cc(N[C@@H]2CC[C@@H](N)C2)n2ncc(Cl)c2n1 [Compound 33, [(1R,3R)-3-[(5-acetamido-3-chloro-pyrazolo[1,5-a]pyrimidin-7-yl)amino]cyclopentyl]ammonium; 2,2,2-trifluoroacetate]
